From article PMC9150076 (Journal of Medicinal Chemistry, 2022)
Like-named read-outs stand apart in the source and are kept apart here.

Columns and labels:
PDAC3 cells = test: Wound-healing/migration assay, PDAC3; format: cell-based, human; settings: PDAC3, 20 h, drug at 5× IC50; control 59 ± 8%
[1] = test system: active caspase-3 in PDAC3 cells; test: Active caspase-3 immunoassay, PDAC3; format: cell-based, human; settings: PDAC3, compared to untreated cells
human FAAH [2] = biological target: T1, human FAAH (Homo sapiens, UniProt O00519); set-up: purchased Cayman Chemical; method as in PMID 33045662; settings: reference benzoylpiperidines; read-out: IC50 hFAAH; cited from earlier work
T1 sequence (O00519 1-579): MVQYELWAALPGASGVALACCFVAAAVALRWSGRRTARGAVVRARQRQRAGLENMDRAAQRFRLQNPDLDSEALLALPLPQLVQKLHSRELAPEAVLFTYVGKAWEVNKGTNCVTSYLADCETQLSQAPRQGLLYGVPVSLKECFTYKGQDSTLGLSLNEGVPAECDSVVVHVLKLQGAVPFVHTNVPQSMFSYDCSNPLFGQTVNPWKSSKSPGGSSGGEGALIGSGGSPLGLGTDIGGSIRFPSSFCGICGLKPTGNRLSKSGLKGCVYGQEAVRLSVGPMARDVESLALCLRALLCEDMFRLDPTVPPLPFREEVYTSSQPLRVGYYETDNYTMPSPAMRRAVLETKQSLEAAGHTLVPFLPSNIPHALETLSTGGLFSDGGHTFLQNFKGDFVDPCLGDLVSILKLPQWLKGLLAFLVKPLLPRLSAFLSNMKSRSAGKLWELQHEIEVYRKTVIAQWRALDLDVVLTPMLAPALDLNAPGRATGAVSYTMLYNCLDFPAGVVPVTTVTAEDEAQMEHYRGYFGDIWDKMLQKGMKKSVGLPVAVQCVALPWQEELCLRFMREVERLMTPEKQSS

human MAGL [3] = biological target: T2, human MAGL (Homo sapiens, UniProt Q99685); set-up: purchased Cayman Chemical; method as in PMID 33045662; settings: reference benzoylpiperidines; read-out: IC50 hMAGL; cited from earlier work
T2 sequence (Q99685 1-303): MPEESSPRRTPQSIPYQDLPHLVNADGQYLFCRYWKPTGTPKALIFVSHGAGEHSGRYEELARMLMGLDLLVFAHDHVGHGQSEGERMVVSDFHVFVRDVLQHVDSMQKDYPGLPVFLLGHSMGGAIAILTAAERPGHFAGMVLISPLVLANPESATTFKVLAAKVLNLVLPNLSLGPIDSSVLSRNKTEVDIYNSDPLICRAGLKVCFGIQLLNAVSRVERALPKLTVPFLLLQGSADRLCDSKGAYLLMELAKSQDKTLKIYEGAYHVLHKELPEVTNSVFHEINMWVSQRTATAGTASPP

[4] = Metabolic stability in human liver microsomes; format: in vitro ADME; settings: 37 °C, 1 h, percentage of unmodified compound
Procedure: The reaction was cooled down in ice and quenched by adding acetonitrile (1.0 mL). After centrifugation (4000 rpm for 10 min), the supernatant was taken, dried under nitrogen flow, and suspended in 100 μL of methanol and the parent drug and metabolites were subsequently determined by UV/LC–MS. The percentage of nonmetabolized compounds was calculated by comparison with reference solutions. For each compound, the determination was performed in three independent experiments.

[5] = Stability test in human plasma; format: in vitro ADME; settings: 37 °C
Procedure: The incubation mixture (total volume of […]) was constituted by the following components: pooled human plasma (1.5 mL, 55.7 mg protein/mL),[65] HEPES buffer (1.4 mL, 25 mM, 140 mM NaCl pH 7.4), and 100 μL of each compound in DMSO (3.0 mM). The solution was mixed in a test tube that was incubated at 37 °C. At set time points (0.0, 0.25, 0.50, 1.0, 2.0, 4.0, 8.0, and 24.0 h), samples of 100 μL were taken, mixed with 400 μL of cold acetonitrile, and centrifuged at 5000 rpm for 15 min.[66] The supernatant was removed and analyzed by UV/LC–MS. For each compound, the determination was performed in three independent experiments.

[6] = Stability test in polar solvents; format: physicochemical
Procedure: Each compound was dissolved at RT in MeOH or PBS (25 mM, pH 7.4) up to a final concentration of 500 μM. Aliquot samples (20 μL) were taken at fixed time points (0.0, 4.0, 8.0, and 24.0 h) and were analyzed by UV/LC–MS. For each compound, the determination was performed in three independent experiments.

Water solubility = format: physicochemical; settings: distilled water, room temperature
Procedure: 6.9 software. Chromatographic separation was obtained using a Kinetex C18 column (150 × 4.6 mm) with a 5 μm particle size and gradient elution with a binary solution; (eluent A: ACN, eluent B: water, both eluents were acidified with formic acid 0.1% v/v). The analysis started with 5% of A (from t = 0 to t = 1 min), then A was increased to 95% (from t = 1 to t = 10 min), then kept at 95% (from t = 10 to t = 19 min), and finally returned to 5% of eluent A in 1.0 min. The flow rate was 0.6 mL/min, and injection volumes were 10 μL. The instrument operated in positive mode, and parameters were detector 1450 V, drying gas pressure 35.0 psi, desolvation temperature 300.0 °C, nebulizing gas 45.0 psi, needle 5550 V and shield 350 V. Nitrogen was used as a nebulizer gas and drying gas. Collision-induced dissociation was performed using argon as the collision gas at a pressure of 1.8 mTorr in the collision cell. The transitions as well as the capillary voltage and the collision energy used are appropriated for each tested compound. Quantification of the single compound was made by comparison with appropriate calibration curves realized with standard solutions in methanol. LC analyses of PAMPA, metabolic stability, and stability tests (in MeOH, PBS, human plasma) were performed by UV/LC–MS with an Agilent 1100 LC/MSD VL system ((G1946C) Agilent Technologies, Palo Alto, CA) using a Phenomenex Kinetex C18–100 Å (150 × 4.6 mm, 5 μm particle size) at room temperature. Analyses were carried out with the same chromatographic conditions reported above.
Each sample was mixed at room temperature in a shaker water bath for 24 h.[62] The resulting suspension was filtered through a 0.45 μm nylon filter (Acrodisc), and the solubilized compound was quantified in triplicate using the LC–MS/MS method reported above, by comparison with the appropriate calibration curve that was obtained from samples of the compound dissolved in methanol at different concentrations.

human MAGL [7] = biological target: T2, human MAGL; test: biochemical; format: biochemical; set-up: purchased Cayman Chemical
human FAAH [8] = biological target: T1, human FAAH; test: FAAH inhibition assay, AMC arachidonoylamide substrate; settings: read-out: IC50 hFAAH
human MAGL [9] = biological target: T2, human MAGL
[10] = test system: PDAC3 primary cell culture; test: Growth inhibition, SRB assay, PDAC3; format: cell-based, human; settings: PDAC3, SRB
MAGL = MAGL (Mus musculus, UniProt O35678)
FAAH = FAAH (Mus musculus, UniProt O08914); format: biochemical
[11] = test system: active caspase-3 in PDAC2 cells; test: Active caspase-3 immunoassay, PDAC2; format: cell-based, human; settings: untreated 0.35
PDAC2 cells = settings: PDAC2, single agent

MAGL, sequence (O35678 whole entry): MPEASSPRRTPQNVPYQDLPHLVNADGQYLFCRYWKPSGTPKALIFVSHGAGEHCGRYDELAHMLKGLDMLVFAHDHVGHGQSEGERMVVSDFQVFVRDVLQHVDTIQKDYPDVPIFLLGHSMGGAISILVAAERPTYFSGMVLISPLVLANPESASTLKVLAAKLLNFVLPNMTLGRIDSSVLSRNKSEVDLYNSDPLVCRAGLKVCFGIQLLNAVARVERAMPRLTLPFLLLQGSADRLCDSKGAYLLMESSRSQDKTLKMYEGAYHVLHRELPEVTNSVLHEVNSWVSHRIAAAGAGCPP
FAAH, sequence (O08914 whole entry): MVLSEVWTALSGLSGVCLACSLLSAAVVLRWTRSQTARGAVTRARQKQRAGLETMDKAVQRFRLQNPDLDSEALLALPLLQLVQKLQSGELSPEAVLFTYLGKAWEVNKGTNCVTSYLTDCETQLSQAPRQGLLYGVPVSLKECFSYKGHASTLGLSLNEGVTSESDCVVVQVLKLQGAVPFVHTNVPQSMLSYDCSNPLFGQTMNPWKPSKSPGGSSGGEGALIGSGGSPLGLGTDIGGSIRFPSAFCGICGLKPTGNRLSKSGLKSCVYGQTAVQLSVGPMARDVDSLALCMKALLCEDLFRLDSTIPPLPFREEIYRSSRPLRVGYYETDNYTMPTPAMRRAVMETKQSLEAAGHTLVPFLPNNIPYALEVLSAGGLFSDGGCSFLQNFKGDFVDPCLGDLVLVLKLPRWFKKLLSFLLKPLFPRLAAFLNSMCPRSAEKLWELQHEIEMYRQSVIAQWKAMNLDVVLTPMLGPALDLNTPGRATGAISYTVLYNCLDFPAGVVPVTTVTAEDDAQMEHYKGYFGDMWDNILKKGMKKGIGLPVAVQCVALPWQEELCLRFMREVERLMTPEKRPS

O=C(OC(C(F)(F)F)C(F)(F)F)N1CCN(Cc2ccc(C(F)(F)F)cc2N2CCCC2)CC1 [ABX-1431]
scratch area closed (PDAC3 cells): 45 ± 7% | levels of active caspase-3 [1]: similarly effective in stimulating caspase-3

O=C(c1ccc(Sc2ccccc2)cc1)C1CCN(C(=O)c2cccc(O)c2)CC1 [Compound 5a]
IC50 (human FAAH [2]): > 10000 nM

O=C(c1ccc(Sc2ccccc2)cc1)C1CCN(C(=O)c2cc(O)ccc2F)CC1 [Compound 5b]
IC50 (human MAGL [3]): 30.5 ± 1.8 nM | IC50 (human FAAH [2]): > 10000 nM

O=C(c1ccc(Sc2cccc(C(F)(F)F)c2)cc1)C1CCN(C(=O)c2cc(O)ccc2F)CC1 [Compound 5c, reference compound]
metabolic stability [4]: 90.5% | stability human plasma [5]: >24 h | stability MeOH ([6]; MeOH, RT): >24 h | stability PBS pH 7.4 ([6]; PBS pH 7.4, RT): >24 h | solubility at 24 h (Water solubility; read-out: water solubility): < 1 ng/mL | solubility at 24 h (Water solubility; read-out: water solubility (logS)): < 1.99 nM

COc1ccc(F)c(C(=O)N2CCC(Cc3cccc(Oc4cc(C(F)(F)F)ccn4)c3)CC2)c1 [Compound 40, (2-Fluoro-5-methoxyphenyl)(4-(3-((4-(trifluoromethyl)pyridin-2-yl)oxy)benzyl)piperidin-1-yl)methanone]
IC50 (human MAGL [7]): 1510 nM | IC50 (human MAGL [7]; read-out: IC50 hMAGL): > 1000 nM | IC50 (human FAAH [8]): > 10000 nM

O=C(Oc1ccc([N+](=O)[O-])cc1)N1CCC(C(O)(c2ccc3c(c2)OCO3)c2ccc3c(c2)OCO3)CC1 [JZL-184]
mechanism of inhibition (pre-incubation and dilution assays) (human MAGL [9]): irreversible mechanism of action | PDAC3 cell growth inhibitory effect (cell growth curves) [10]: effective in reducing PDAC3 proliferation | scratch area closed (PDAC3 cells): 43 ± 8% | levels of active caspase-3 [1]: similarly effective in stimulating caspase-3 | TAMRA-FP labelling of MAGL bands (ABPP) (MAGL): can fully compete with the probe

NC(=O)c1cccc(-c2cccc(OC(=O)NC3CCCCC3)c2)c1 [URB597, reference compound]
TAMRA-FP labelling of FAAH band (ABPP) (FAAH): disappeared

Nc1ccn([C@@H]2O[C@H](CO)[C@@H](O)C2(F)F)c(=O)n1 [gemcitabine]
levels of active caspase-3 [11]: 0.88 ng/mL | levels of active caspase-3 [1]: significantly higher levels of active caspase-3 | apoptosis fold induction/change (PDAC2 cells): ~5 fold
